Measured values reported in patent publication US12227500B2, “Substituted pyrrolo[2,3-b]pyridines for suppressing toxic endoplasmic reticulum stress” (THE TRUSTEES OF COLUMBIA UNIVERSITY IN THE CITY OF NEW YORK, priority 2018, dated 2025).
Read-outs that look alike come from different tables or passages of the source.

Key:
Test in all cases: Radiolabeled ATP kinase assay, panel of 60 kinases (Table S5)
Assay type in all cases: biochemical
[1] = molecular target: T1, panel of 60 human kinases (Homo sapiens, UniProt Q16288); details: TRKC; 0.1 μM; 10 μM ATP; read-out: % Enzyme Activity (relative to DSMO controls)
T1 construct: purchased Reaction Biology Corp
T1 sequence (Q16288 32-839): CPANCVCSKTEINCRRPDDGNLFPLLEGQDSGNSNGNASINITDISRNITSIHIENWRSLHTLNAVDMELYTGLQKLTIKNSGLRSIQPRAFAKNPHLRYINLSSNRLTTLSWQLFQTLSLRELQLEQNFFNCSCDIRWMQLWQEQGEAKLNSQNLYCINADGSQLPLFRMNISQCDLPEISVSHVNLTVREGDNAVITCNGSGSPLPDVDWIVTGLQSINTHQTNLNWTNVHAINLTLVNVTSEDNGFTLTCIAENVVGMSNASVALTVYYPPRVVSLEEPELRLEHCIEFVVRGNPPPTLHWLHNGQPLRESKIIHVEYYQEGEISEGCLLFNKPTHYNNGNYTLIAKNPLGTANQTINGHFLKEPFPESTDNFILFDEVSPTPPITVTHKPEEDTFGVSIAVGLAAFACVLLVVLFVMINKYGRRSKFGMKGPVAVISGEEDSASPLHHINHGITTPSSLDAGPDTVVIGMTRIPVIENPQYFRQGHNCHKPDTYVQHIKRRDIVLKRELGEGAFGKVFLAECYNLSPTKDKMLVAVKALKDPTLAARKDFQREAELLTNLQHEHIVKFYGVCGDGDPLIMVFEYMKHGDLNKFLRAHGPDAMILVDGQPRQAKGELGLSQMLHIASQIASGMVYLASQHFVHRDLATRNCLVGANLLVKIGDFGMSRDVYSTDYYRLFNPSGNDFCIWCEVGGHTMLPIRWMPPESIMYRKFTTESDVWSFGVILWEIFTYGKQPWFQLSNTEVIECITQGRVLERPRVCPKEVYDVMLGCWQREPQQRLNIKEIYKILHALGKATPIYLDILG
Protocol: (§1) To better understand the biologically relevant targets of compound 1 and its analogs, a second round of cell-free kinase assays was performed. In this expanded assay, we selected ten analogs ranging from moderately to very strongly protective in the CPA assay. These analogs were evaluated for their ability to inhibit a selection of 60 kinases at 0.1 μM and 0.5 μM. […] RNAseq data were used to confirm the expression of each kinase in ES MNs (see Example 12).
(§2) RNAseq data were used to confirm the expression of each kinase in ES motor neurons (see Example 12).

[2] = molecular target: T2, panel of 60 human kinases (Homo sapiens, UniProt Q9UKE5); details: TNIK; 0.1 μM; 10 μM ATP; read-out: % Enzyme Activity (relative to DSMO controls)
T2 construct: purchased Reaction Biology Corp
Protocol: as §1, §2

[3] = molecular target: T3, panel of 60 human kinases (Homo sapiens, UniProt Q00536); details: CDK16/cyclin Y (PCTAIRE); 0.1 μM; 10 μM ATP; read-out: % Enzyme Activity (relative to DSMO controls)
T3 construct: purchased Reaction Biology Corp
Protocol: as §1, §2

[4] = molecular target: T4, panel of 60 human kinases (Homo sapiens, UniProt Q07002); details: CDK18/cyclin Y (PCTK3); 0.1 μM; 10 μM ATP; read-out: % Enzyme Activity (relative to DSMO controls)
T4 construct: purchased Reaction Biology Corp
T4 sequence (Q07002 whole entry): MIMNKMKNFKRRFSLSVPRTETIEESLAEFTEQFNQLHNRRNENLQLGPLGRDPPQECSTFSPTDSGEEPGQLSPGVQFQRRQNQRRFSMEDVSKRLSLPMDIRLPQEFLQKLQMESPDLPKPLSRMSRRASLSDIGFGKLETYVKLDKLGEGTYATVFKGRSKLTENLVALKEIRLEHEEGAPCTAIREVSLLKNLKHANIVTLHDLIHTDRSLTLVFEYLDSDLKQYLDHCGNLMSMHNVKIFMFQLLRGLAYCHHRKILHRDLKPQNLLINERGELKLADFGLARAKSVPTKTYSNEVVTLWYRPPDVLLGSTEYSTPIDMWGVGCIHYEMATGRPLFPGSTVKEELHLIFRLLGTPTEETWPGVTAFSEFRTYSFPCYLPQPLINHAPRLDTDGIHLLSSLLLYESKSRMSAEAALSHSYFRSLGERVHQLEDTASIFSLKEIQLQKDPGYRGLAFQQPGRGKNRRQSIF
Protocol: as §1, §2

[5] = molecular target: T5, panel of 60 human kinases (Homo sapiens, UniProt P49841); details: GSK3b; 0.1 μM; 10 μM ATP; read-out: % Enzyme Activity (relative to DSMO controls)
T5 construct: purchased Reaction Biology Corp
T5 sequence (P49841 whole entry): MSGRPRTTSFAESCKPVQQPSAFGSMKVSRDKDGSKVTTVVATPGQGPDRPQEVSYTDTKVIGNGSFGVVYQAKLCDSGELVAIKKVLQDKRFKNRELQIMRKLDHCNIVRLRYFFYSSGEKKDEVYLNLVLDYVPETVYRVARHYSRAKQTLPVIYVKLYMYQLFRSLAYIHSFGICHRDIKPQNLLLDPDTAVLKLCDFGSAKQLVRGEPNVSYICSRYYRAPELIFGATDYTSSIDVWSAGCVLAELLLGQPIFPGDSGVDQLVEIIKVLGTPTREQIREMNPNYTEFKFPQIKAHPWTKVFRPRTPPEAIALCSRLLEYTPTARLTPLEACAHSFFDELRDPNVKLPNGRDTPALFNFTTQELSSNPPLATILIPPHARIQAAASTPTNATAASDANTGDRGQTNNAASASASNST
Protocol: as §1, §2

[6] = molecular target: T6, panel of 60 human kinases (Homo sapiens, UniProt Q00537); details: CDK17/cyclin Y (PCTK2); 0.1 μM; 10 μM ATP; read-out: % Enzyme Activity (relative to DSMO controls)
T6 construct: purchased Reaction Biology Corp
T6 sequence (Q00537 whole entry): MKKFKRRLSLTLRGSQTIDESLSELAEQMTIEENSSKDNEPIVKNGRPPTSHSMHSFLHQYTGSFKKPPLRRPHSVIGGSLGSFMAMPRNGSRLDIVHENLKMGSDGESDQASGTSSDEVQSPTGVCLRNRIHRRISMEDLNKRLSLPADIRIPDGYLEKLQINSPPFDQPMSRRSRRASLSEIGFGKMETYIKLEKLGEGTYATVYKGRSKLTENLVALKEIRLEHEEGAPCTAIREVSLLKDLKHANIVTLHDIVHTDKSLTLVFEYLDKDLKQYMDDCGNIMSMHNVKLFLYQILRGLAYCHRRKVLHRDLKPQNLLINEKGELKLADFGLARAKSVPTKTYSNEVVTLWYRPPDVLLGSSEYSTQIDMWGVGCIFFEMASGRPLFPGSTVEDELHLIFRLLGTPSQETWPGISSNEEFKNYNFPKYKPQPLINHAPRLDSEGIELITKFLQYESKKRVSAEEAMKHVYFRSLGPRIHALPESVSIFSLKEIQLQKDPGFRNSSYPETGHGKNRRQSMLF
Protocol: as §1, §2

[7] = molecular target: T7, panel of 60 human kinases (Homo sapiens, UniProt P24941); details: 0.1 μM, 10 μM ATP, read-out: % Enzyme Activity (relative to DSMO controls)
T7 construct: purchased Reaction Biology Corp
Protocol: as §1, §2

[8] = molecular target: T8, panel of 60 human kinases (Homo sapiens, UniProt Q00535); details: 0.1 μM, 10 μM ATP, read-out: % Enzyme Activity (relative to DSMO controls)
T8 construct: purchased Reaction Biology Corp
T8 sequence (Q00535 whole entry): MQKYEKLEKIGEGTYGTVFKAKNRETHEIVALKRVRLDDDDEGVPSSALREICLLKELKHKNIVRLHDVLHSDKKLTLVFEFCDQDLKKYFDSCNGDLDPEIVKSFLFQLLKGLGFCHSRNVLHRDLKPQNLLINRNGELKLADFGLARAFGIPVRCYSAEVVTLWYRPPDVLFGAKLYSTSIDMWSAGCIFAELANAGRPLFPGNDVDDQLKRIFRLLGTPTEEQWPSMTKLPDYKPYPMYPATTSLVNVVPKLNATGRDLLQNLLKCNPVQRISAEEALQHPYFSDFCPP
Protocol: as §1, §2

[9] = molecular target: T9, panel of 60 human kinases (Homo sapiens, UniProt P49760); details: CLK2; 0.1 μM; 10 μM ATP; read-out: % Enzyme Activity (relative to DSMO controls)
T9 construct: purchased Reaction Biology Corp
Protocol: as §1, §2

[10] = molecular target: T10, panel of 60 human kinases (Homo sapiens, UniProt P08581); details: c-MET; 0.1 μM; 10 μM ATP; read-out: % Enzyme Activity (relative to DSMO controls)
T10 construct: purchased Reaction Biology Corp
Protocol: as §1, §2

[11] = molecular target: T11, panel of 60 human kinases (Homo sapiens, UniProt Q96GD4); details: Aurora B; 0.1 μM; 10 μM ATP; read-out: % Enzyme Activity (relative to DSMO controls)
T11 construct: purchased Reaction Biology Corp
T11 sequence (Q96GD4 whole entry): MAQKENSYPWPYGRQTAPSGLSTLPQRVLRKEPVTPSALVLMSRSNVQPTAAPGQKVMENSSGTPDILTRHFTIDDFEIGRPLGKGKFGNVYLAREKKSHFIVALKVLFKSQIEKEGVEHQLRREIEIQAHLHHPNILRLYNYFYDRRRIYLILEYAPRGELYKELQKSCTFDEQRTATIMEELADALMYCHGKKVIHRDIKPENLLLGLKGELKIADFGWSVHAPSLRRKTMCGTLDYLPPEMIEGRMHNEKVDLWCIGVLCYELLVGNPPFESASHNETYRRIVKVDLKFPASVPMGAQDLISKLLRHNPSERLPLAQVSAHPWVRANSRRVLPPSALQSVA
Protocol: as §1, §2

[12] = molecular target: T12, panel of 60 human kinases (Homo sapiens, UniProt P42684); details: ABL2/ARG; 0.1 μM; 10 μM ATP; read-out: % Enzyme Activity (relative to DSMO controls)
T12 construct: purchased Reaction Biology Corp
Protocol: as §1, §2

[13] = molecular target: T13, panel of 60 human kinases (Homo sapiens, UniProt O14965); details: Aurora A; 0.1 μM; 10 μM ATP; read-out: % Enzyme Activity (relative to DSMO controls)
T13 construct: purchased Reaction Biology Corp
T13 sequence (O14965 1-403): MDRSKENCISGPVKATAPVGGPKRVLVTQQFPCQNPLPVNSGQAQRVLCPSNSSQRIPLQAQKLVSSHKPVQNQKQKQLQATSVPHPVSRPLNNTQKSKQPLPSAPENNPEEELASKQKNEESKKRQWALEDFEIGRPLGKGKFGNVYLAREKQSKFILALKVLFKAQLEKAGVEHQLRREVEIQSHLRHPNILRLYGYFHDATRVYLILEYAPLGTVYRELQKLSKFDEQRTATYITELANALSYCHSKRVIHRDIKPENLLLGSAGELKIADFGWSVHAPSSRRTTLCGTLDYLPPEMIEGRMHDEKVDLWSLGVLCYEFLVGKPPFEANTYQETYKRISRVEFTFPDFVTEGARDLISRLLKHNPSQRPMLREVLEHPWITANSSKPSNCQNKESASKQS
Protocol: as §1, §2

[14] = molecular target: T14, panel of 60 human kinases (Homo sapiens, UniProt Q92918); details: HPK1/MAP4K1; 0.1 μM; 10 μM ATP; read-out: % Enzyme Activity (relative to DSMO controls)
T14 construct: purchased Reaction Biology Corp
Protocol: as §1, §2

[15] = molecular target: T15, panel of 60 human kinases (Homo sapiens, UniProt Q8N4C8); details: MINK/MINK1; 0.1 μM; 10 μM ATP; read-out: % Enzyme Activity (relative to DSMO controls)
T15 construct: purchased Reaction Biology Corp
T15 sequence (Q8N4C8 whole entry): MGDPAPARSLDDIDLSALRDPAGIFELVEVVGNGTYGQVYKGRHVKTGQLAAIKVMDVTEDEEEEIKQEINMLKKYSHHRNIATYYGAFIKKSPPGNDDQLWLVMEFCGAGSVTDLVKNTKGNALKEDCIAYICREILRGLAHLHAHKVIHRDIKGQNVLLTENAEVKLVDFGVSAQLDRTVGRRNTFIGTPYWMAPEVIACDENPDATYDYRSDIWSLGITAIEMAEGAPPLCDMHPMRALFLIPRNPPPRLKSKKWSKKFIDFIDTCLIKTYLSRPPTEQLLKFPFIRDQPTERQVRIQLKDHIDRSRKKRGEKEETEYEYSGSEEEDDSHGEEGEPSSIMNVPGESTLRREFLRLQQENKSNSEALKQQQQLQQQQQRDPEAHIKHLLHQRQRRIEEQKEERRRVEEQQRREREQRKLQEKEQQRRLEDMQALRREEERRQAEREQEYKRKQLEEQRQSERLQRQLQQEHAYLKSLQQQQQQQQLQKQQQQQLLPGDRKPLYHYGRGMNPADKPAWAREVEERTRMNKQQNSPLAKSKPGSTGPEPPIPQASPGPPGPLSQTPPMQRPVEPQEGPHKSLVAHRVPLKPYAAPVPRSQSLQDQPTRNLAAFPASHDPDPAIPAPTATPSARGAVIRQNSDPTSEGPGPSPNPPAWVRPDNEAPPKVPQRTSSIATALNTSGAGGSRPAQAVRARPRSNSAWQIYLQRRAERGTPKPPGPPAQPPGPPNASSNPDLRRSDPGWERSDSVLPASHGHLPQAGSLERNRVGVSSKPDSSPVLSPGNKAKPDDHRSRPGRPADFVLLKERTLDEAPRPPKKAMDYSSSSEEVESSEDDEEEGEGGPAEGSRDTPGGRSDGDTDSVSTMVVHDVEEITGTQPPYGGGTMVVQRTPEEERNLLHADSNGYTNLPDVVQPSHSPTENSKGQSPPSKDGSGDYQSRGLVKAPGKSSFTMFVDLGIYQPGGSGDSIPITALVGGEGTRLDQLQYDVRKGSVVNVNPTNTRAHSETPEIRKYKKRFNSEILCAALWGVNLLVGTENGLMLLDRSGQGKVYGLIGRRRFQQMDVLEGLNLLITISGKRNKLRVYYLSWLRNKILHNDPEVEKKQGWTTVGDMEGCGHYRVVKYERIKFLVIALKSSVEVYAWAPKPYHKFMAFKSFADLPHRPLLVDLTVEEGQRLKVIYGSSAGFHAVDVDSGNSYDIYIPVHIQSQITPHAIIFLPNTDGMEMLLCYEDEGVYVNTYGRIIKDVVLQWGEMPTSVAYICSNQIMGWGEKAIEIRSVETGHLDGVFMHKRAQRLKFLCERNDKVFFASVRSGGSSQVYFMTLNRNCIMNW
Protocol: as §1, §2

[16] = molecular target: T16, panel of 60 human kinases (Homo sapiens, UniProt Q9HAZ1); details: CLK4; 0.1 μM; 10 μM ATP; read-out: % Enzyme Activity (relative to DSMO controls)
T16 construct: purchased Reaction Biology Corp
Protocol: as §1, §2

[17] = molecular target: T17, panel of 60 human kinases (Homo sapiens, UniProt P22607); details: FGFR3; 0.1 μM; 10 μM ATP; read-out: % Enzyme Activity (relative to DSMO controls)
T17 construct: purchased Reaction Biology Corp
T17 sequence (P22607 23-806): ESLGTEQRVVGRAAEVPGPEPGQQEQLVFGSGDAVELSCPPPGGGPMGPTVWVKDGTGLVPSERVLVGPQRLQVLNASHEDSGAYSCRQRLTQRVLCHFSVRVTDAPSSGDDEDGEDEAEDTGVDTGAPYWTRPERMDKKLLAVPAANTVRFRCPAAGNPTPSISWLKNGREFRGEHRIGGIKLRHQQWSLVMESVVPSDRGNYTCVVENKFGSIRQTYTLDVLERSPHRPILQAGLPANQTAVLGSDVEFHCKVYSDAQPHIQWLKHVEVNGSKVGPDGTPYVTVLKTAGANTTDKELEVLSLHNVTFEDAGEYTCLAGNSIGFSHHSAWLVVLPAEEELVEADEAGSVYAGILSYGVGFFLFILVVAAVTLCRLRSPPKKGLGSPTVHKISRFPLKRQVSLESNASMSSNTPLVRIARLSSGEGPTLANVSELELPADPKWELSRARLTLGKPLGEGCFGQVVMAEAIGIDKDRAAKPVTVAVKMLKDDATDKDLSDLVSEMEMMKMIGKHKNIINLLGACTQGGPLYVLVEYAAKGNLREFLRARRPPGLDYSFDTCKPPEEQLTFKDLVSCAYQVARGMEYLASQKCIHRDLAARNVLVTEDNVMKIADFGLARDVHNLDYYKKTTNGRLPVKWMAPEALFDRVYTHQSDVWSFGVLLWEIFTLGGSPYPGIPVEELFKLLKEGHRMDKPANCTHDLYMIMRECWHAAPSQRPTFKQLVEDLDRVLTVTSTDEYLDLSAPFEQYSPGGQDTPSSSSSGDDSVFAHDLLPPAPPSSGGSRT
Protocol: as §1, §2

| Structure (SMILES) | remaining activity at 0.1 µM [1] | remaining activity at 0.1 µM [2] | remaining activity at 0.1 µM [3] | remaining activity at 0.1 µM [4] | remaining activity at 0.1 µM [5] | remaining activity at 0.1 µM [6] | remaining activity at 0.1 µM ([7]; CDK2/cyclin A1) | remaining activity at 0.1 µM ([7]; CDK2/cyclin A) | remaining activity at 0.1 µM ([7]; CDK2/cyclin E) | remaining activity at 0.1 µM ([7]; CDK2/cyclin O) | remaining activity at 0.1 µM ([8]; CDK5/p25) | remaining activity at 0.1 µM ([8]; CDK5/p35) | remaining activity at 0.1 µM [9] | remaining activity at 0.1 µM [10] | remaining activity at 0.1 µM [11] | remaining activity at 0.1 µM [12] | remaining activity at 0.1 µM [13] | remaining activity at 0.1 µM [14] | remaining activity at 0.1 µM [15] | remaining activity at 0.1 µM [16] | other results |
| --- | --- | --- | --- | --- | --- | --- | --- | --- | --- | --- | --- | --- | --- | --- | --- | --- | --- | --- | --- | --- | --- |
| Cc1nn(C)c(C)c1-c1c[nH]c2ncc(-c3ccc(CN4CCN(C)CC4)cc3)cc12 [Compound 7ai, 5-(4-((4-Methylpiperazin-1-yl)methyl)phenyl)-3-(1,3,5-trimethyl-1H-pyrazol-4-yl)-1H-pyrrolo[2,3-b]pyridine] | 13.1% | 1.35% | 87.7% | 100% | 94% | 69.4% | 87.8% | 90.9% | 94.8% | 77.9% | 93.2% | 87.9% | 52.5% | 77.4% | 99% | 44.4% | 95.5% | 67.8% | 7.8% | 78.5% | remaining activity at 0.1 µM [17]: 82% |
| CN1CCN(Cc2ccc(-c3cnc4[nH]cc(-c5ccccc5Cl)c4c3)cc2)CC1 [Compound 7as, 3-(2-Chlorophenyl)-5-(4-((4-methylpiperazin-1-yl)methyl)phenyl)-1H-pyrrolo[2,3-b]pyridine] | 6.32% | 0.51% | 75.2% | 95.5% | 98.9% | 44.1% | 65% | 69.5% | 88.5% | 51.2% | 48.6% | 36% | 22.5% | 84.1% | 82.5% | 0.99% | 81.1% | 19.5% | 0.19% | 65.7% | remaining activity at 0.1 µM [17]: 42.3% |
| COc1ccccc1-c1c[nH]c2ncc(-c3ccc(CN4CCN(C)CC4)cc3)cc12 [Compound 7at, 3-(2-Methoxyphenyl)-5-(4-((4-methylpiperazin-1-yl)methyl)phenyl)-1H-pyrrolo[2,3-b]pyridine] | 34.8% | 2.2% | 76.9% | 97.1% | 97.3% | 69.7% | 58.8% | 56.1% | 80.6% | 29.6% | 43.1% | 31.9% | 90.9% | 86.8% | 87.8% | 21.8% | 90.2% | 55.6% | 9.84% | 90.4% | remaining activity at 0.1 µM [17]: 82.1% |
